From patent US20030027870A1, “Fullerene derivatives that modulate nitric oxide synthase and clamodulin activity” (priority 2001, published 2003)

Key:
iNOS = biological target: T1, iNOS (Mus musculus, UniProt P29477); experiment: Citrulline formation assay, iNOS; format: biochemical, murine; conditions: read-out: IC50 for Inhibition of Citrulline Formation
T1 construct: Expression of iNOS was induced with 5 μg/mL of Escherichia coli lipopolysaccharide and 50 units/mL of mouse γ-interferon; endogenous in cells; host or cells: RAW 264.7 macrophages induced with LPS and interferon-gamma; enzyme purified on 2',5'-ADP-agarose and DEAE-cellulose
Procedure: Cytokine-inducible NOS was purified from murine RAW 264.7 macrophages grown in DMEM/Hepes, pH 7.5, supplemented with 10% fetal bovine serum. Expression of iNOS was induced with 5 μg/mL of Escherichia coli lipopolysaccharide and 50 units/mL of mouse γ-interferon. Homogeneous preparation of the iNOS was obtained through sequential purification on 2′,5′-ADP-agarose and DEAE-cellulose as described previously (Bryk, R. and Wolff, R. (1998) Biochemistry 37:4844-4852). Purified iNOS was about 95% pure as judged by a Coomassie-stained SDS-PAGE.
(§1) Citrulline formation by NOS isoforms was measured in 150 μL reaction mixtures containing 30 mM Hepes, pH 7.5, 1 mM DTT, 120 nM L-[2,3-^3H]-arginine without or with unlabeled arginine, 1 mM EGTA, 0.85 mM Ca^2+ (when present), 6 μM CaM (calmodulin, when present), 100 μM NADPH, and 300 μM BH4. Incubations were initiated by the addition of enzyme and reaction mixtures incubated for 30 min at 30° C. in duplicate and reactions stopped and analyzed as described by Wolff and Datto (Wolff and Datto, 1992). When citrulline formation was measured as a function of CaM concentration 1.5 mM Ca^2+ was employed in the assay Assay of NADPH-Oxidase Activity.

nNOS [1] = biological target: T2, nNOS (Rattus norvegicus, UniProt P29476); experiment: Citrulline formation assay, nNOS; format: biochemical; conditions: read-out: IC50 for Inhibition of Citrulline Formation
T2 construct: endogenous in cells; host or cells: rat GH3 pituitary cells; enzyme purified on 2',5'-ADP-agarose and calmodulin-Affi Gel 15 agarose
Procedure: (§2) Neuronal NOS was purified from rat GH3 pituitary cells grown in Ham's F-10 supplemented with 12.5% horse serum and 3% fetal bovine serum. Cells were homogenized in 5 volumes of 50 mM Mops, pH 7.4, 1 mM EGTA, 1 mM DTT, 100 mM NaCl, 0.5% CHAPSO, 50 μM BH4, 100 μM leupeptin, and 10 μM E64. A postmitochondrial supernatant fraction was generated by centrifugation and was affinity-purified on 2′,5′ADP-agarose as reported previously (Wolff, D. J. and Datto, G. (1992) Biochem. J. 284:201-206). The affinity-purified proteins were eluted with 50 mM Mops, pH 7.4, 1 mM EGTA, 1 mM DTT, 5 mM NADPH, 0.1% CHAPSO, 150 mM NaCl, 50 μM BH4, 100 μM leupeptin, and 10 μM E64. […] Fractions containing nNOS as determined by citrulline formation assay were concentrated with a Centriprep 30 (Amicon).
as §1, with “When citrulline formation was measured as a function of CaM concentration 1.5 mM Ca^2+ was employed in the assay Assay of NADPH-Oxidase Activity.” left out

eNOS = biological target: T3, eNOS (Bos taurus, UniProt P29473); experiment: Citrulline formation assay, eNOS; format: biochemical, Bovine; conditions: read-out: IC50 for Inhibition of Citrulline Formation
T3 construct: Bovine pulmonary arterial endothelial NOS (ENOS) was prepared; from tissue; host or cells: bovine pulmonary arterial endothelium
Procedure: Bovine pulmonary arterial endothelial NOS (ENOS) was prepared and characterized as described previously (Wolff, D. J. et al. (1994) Arch. Biochem. Biophys. 312:360-366).
as §1

nNOS [2] = biological target: T2, nNOS; experiment: NO formation assay (oxyhemoglobin to methemoglobin), nNOS; format: biochemical; conditions: multisite, positively cooperative inhibition of nNOS NO formation
Procedure: as §2
Nitric oxide production over time was measured spectrophotometrically at 401 nm by the conversion of oxyhemoglobin to methemoglobin (Noack, E. et al. (1992) Neuroprotocols 1:133-139). […] Methemoglobin formation was monitored against a reference cuvette containing complete reaction mixture without enzyme. NO production was calculated using an extinction coefficient of 38 mM^−1 cm^−1 (Noack et al.,1992).

nNOS [3] = biological target: T2, nNOS; experiment: NADPH-oxidase activity (NADPH consumption) of nNOS; format: biochemical
Procedure: (§3) Neuronal NOS was purified from rat GH3 pituitary cells grown in Ham's F-10 supplemented with 12.5% horse serum and 3% fetal bovine serum. Cells were homogenized in 5 volumes of 50 mM Mops, pH 7.4, 1 mM EGTA, 1 mM DTT, 100 mM NaCl, 0.5% CHAPSO, 50 μM BH4, 100 μM leupeptin, and 10 μM E64. A postmitochondrial supernatant fraction was generated by centrifugation and was affinity-purified on 2′,5′ADP-agarose as reported previously (Wolff, D. J. and Datto, G. (1992) Biochem. J. 284:201-206). The affinity-purified proteins were eluted with 50 mM Mops, pH 7.4, 1 mM EGTA, 1 mM DTT, 5 mM NADPH, 0.1% CHAPSO, 150 mM NaCl, 50 μM BH4, 100 μM leupeptin, and 10 μM E64. The eluate was adjusted to contain 2.5 mM Ca^2+ and was adsorbed to a calmodulin-Affi Gel 15 agarose column equilibrated in 50 mM Mops, 1 mM EGTA, 2.5 mM Ca^2+ 0.1% CHAPSO, 150 mM NaCl, 25 μM arginine, 1 mM DTT, 50 μM BH4, 100 μM leupeptin, and 10 μM E64. The column was washed with equilibration buffer containing 500 mM NaCl but without arginine, and nNOS was eluted with equilibration buffer containing 2.5 mM EGTA but without Ca^2+ or arginine. Fractions containing nNOS as determined by citrulline formation assay were concentrated with a Centriprep 30 (Amicon).
Standard reaction mixtures of 1 mL volume in quartz cuvettes contained 50 mM Hepes, pH 7.4, 150 μM NADPH, 6 μM CaM, 1 mM EGTA, 0.85 mM Ca^2+ and 0.15 μM BH4. Reactions were initiated by the addition of nNOS enzyme and NADPH consumption was measured from the change in light absorbance at 340 nm as compared to an identical reference cuvette without enzyme using an extinction coefficient of 6.22 mM^−1 cm^−1.

nNOS [4] = biological target: T2, nNOS; experiment: Cytochrome c reductase assay of nNOS; format: biochemical; conditions: at concentrations as high as 300 μM
Procedure: as §3, with “The column was washed with equilibration buffer containing 500 mM NaCl but without arginine, and nNOS was eluted with equilibration buffer containing 2.5 mM EGTA but without Ca^2+ or arginine.” left out
The cytochrome c reductase activity of nNOS was determined as described previously, (Cooper et al. (2000) Arch. Biochem. Biophys. 375:183-194) in the presence of 1 mM EGTA, 2 mM Ca^2+, and 10 μg/ml CaM. An extinction coefficient of 21 mM^−1 cm^−1 (22) was used to quantify cytochrome c reduction.

nNOS dimers = biological target: T4, nNOS dimers (Rattus norvegicus, UniProt P29476); experiment: Sucrose density gradient centrifugation of nNOS; conditions: fully inhibitory concentrations
T4 construct: endogenous in cells; host or cells: rat GH3 pituitary cells
T4 sequence (P29476 whole entry): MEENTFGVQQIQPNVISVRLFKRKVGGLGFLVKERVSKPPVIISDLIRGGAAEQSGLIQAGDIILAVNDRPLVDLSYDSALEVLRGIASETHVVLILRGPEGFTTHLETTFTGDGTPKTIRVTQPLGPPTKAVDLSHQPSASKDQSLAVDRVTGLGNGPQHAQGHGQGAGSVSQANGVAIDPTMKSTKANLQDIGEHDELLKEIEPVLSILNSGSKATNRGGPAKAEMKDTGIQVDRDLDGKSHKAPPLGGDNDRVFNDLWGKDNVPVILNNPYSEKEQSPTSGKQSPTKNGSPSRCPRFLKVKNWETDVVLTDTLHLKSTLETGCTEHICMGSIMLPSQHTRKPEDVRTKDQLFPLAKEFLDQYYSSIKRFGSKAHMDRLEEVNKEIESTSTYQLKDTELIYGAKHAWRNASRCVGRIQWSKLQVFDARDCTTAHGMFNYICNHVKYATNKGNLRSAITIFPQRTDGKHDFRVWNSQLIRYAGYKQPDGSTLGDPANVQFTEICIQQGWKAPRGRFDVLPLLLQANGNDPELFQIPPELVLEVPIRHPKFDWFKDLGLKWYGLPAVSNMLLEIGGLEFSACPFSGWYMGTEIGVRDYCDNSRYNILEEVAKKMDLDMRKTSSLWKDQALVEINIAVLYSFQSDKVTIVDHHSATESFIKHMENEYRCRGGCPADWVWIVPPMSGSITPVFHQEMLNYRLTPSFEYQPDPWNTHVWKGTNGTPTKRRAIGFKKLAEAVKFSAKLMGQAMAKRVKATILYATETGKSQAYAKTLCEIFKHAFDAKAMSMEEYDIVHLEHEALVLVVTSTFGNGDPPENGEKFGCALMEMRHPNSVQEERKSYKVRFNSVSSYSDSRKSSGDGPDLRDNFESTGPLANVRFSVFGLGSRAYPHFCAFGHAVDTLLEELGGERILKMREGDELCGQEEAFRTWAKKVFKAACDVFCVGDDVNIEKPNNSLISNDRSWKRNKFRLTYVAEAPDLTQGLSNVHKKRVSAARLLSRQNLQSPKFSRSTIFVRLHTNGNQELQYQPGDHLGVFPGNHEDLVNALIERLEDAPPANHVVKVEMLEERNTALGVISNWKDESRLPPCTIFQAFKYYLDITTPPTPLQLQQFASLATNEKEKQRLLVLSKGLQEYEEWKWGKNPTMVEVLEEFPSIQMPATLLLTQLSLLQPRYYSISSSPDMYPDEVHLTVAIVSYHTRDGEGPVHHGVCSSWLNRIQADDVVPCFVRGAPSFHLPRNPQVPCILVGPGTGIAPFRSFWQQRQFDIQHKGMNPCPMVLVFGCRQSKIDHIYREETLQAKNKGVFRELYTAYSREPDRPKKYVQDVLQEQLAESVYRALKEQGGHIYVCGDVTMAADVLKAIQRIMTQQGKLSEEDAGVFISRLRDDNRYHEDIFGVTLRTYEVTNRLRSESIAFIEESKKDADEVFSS
Procedure: Samples of nNOS were either unadjusted (control) or were adjusted to 50 μM C3-tris-malonyl-C60-fullerene and were applied to a 5-20% sucrose gradient containing 50 mM Mops, pH 7.4, 150 mM NaCl, 1 mM EGTA, 1 mM DTT, 0.3% CHAPSO, and 10 μM BH4, either without (control) or containing 50 μM C3-tris-malonyl-C60-fullerene. Gradients were run at 35,000 rpm for 18 h at 4° C. in an L5-L5 Beckman Ultracentrifuge using an SW41 rotor. Fractions (375 μL) were collected using an ISCO density gradient fractionator, Model 185. The fractions from the gradient were kept on ice and portions were assayed for cytochrome c reductase activity (measures both monomers and dimers) and citrulline forming activity (measures dimers exclusively). Hemoglobin (4.09S), catalyze (11.9S), and thyoglobulin (19.4S) were run in a separate tube as sedimentation markers.

nNOS [5] = biological target: T5, nNOS; experiment: CaM antagonists inhibiting citrulline formation by nNOS at 6 nM CaM; format: biochemical, rat; conditions: 30-min incubation
T5 construct: Bovine brain calmodulin was prepared; endogenous in cells; host or cells: rat GH3 pituitary cells (nNOS); bovine brain (calmodulin)
Procedure: Cells were homogenized in 5 volumes of 50 mM Mops, pH 7.4, 1 mM EGTA, 1 mM DTT, 100 mM NaCl, 0.5% CHAPSO, 50 μM BH4, 100 μM leupeptin, and 10 μM E64. […] Fractions containing nNOS as determined by citrulline formation assay were concentrated with a Centriprep 30 (Amicon).

| Compound | IC50 (iNOS) [µM] | IC50 (nNOS [1]) [µM] | IC50 (eNOS) [µM] | Hill coefficient of inhibition (nNOS [2]) | inhibition of arginine-independent NADPH-oxidase activity of nNOS (in words) (nNOS [3]) | IC50 (nNOS [3]; arginine-independent) [µM] | effects on cytochrome c reductase activity of nNOS (nNOS [4]) | dissociation of nNOS dimers into monomers (nNOS dimers) | IC50 (nNOS [5]) [µM] |
| --- | --- | --- | --- | --- | --- | --- | --- | --- | --- |
| 1,2:18,36:31,32-Tris(methano)[60] fullerene-61, 61, 62, 62, 63, 63 hexa-carboxylic acid, (e,e,e) C3 symmetry isomer [C3-Tris malonyl adduct diacid] | 123 | 24 | 17 | 2.0 | inhibited | 22 | no effects | did not produce a dissociation | – |
| 1,2:34,35:40,41-tris(methano)[60] fullerene-61, 61, 62, 62, 63, 63 hexacarboxylic acid, (trans-3, trans-3, trans-3) D3 symmetry isomer [D3-Tris malonyl adduct diacid] | 317 | 86 | 143 | – | inhibited | – | – | – | – |
| Clc1ccc(C(c2ccc(Cl)cc2)n2cc[n+](CC(OCc3ccc(Cl)cc3Cl)c3ccc(Cl)cc3Cl)c2)cc1 (stereo not shown) [Calmidazolium] | – | – | – | – | – | – | – | – | 0.273 |
